Assay results reported in a compilation of properties of binary mixtures (doi:10.1021/je300108z).

Assay: xn = mol fraction of the nth substance listed
Conditions: 101 kPa

Molecule `CCCCCC[N+](CC)(CC)CC.O=S(=O)([N-]S(=O)(=O)C(F)(F)F)C(F)(F)F` + O has a viscosity (298.05 K, x2 = 0.1618) of 66.7 mPa·s, a viscosity (303.05 K, x2 = 0.1618) of 54 mPa·s and a viscosity (313.05 K, x2 = 0.1618) of 36.49 mPa·s. The viscosity (318.05 K, x2 = 0.1618) was 30.73 mPa·s and the viscosity (322.95 K, x2 = 0.1618) was 25.98 mPa·s.

For `CCCCCCCC[N+](CC)(CC)CC.O=S(=O)([N-]S(=O)(=O)C(F)(F)F)C(F)(F)F` + O, the viscosity (293.25 K, x2 = 0.1442) was 107.8 mPa·s, the viscosity (298.05 K, x2 = 0.1442) was 88.1 mPa·s and the viscosity (303.05 K, x2 = 0.1442) was 69.8 mPa·s. For the same molecule, the viscosity (313.05 K, x2 = 0.1442) was 45.09 mPa·s.

Work on `CCCCCCCCCCCC[N+](CC)(CC)CC.O=S(=O)([N-]S(=O)(=O)C(F)(F)F)C(F)(F)F` + O yielded a viscosity (302.95 K, x2 = 0.1238) of 97.2 mPa·s, a viscosity (308.05 K, x2 = 0.1238) of 76.6 mPa·s and a viscosity (313.05 K, x2 = 0.1238) of 60.7 mPa·s. The viscosity (318.05 K, x2 = 0.1238) was 48.8 mPa·s and the viscosity (322.95 K, x2 = 0.1238) was 39.19 mPa·s.
